Source: publication PMC5118987 (Antimicrobial Agents and Chemotherapy, 2016)

Assays:
HIV-1 clonal variants = assay: PhenoSense integrase assay, clonal variants from EVG/COBI/FTC/TDF virologic failures; assay type: cell-based
Description: Clonal Analysis of HIV-1 from Patients. Plasma from 16 patients treated in Studies GS-US-236-0102 and GS-US-236-0103 with confirmed virologic failure and resistance development in the HIV-1 integrase gene were sent to Monogram Biosciences (South San Francisco, CA) for clonal analysis. The HIV-1 RNA was isolated and the cDNA was synthesized using Monogram proprietary primers. Using proprietary primers, PCR amplification of the entire protease, reverse transcriptase, and integrase coding regions of the pol gene were performed. PCR products were inserted into T/A cloning vectors.
Approximately 20 clones were chosen per patient sample for sequencing using proprietary primers. A subset of clones was chosen for phenotypic analysis based on the presence of INSTI resistance mutations. Resistance test vectors containing the patient-derived integrase coding region from selected clones were constructed using standard Monogram Biosciences protocols. […]
values) in these clones were obtained through a contract study by Monogram Biosciences using the PhenoSense integrase assay. The fold-change from the NL4-3 wild-type reference vector values was determined.

[1] = test system: HIV-1 patient-derived isolates with INSTI resistance mutations; assay: PhenoSense IN assay, 47 patient-derived isolates; assay type: cell-based
Experimental: Forty-seven resistance test vectors containing patient-derived IN coding regions were constructed using standard Monogram Biosciences protocols. […] The fold change from the NL4-3 wild-type reference vector values was determined. Statistical significance was determined using the Student two-tailed t test.

Cc1nnc(C(=O)NC(C)(C)c2nc(C(=O)NCc3ccc(F)cc3)c(O)c(=O)n2C)o1 [RAL, raltegravir]
Susceptibility (Fold-change vs. WT) (HIV-1 clonal variants; clone 6041-11: E92Q): 3.67 fold-change
Susceptibility (Fold-change vs. WT) (HIV-1 clonal variants; clone 6101-12: Q148R): 32 fold-change
Susceptibility (Fold-change vs. WT) (HIV-1 clonal variants; clone 6101-14: N155H): 6.56 fold-change
Susceptibility (Fold-change vs. WT) (HIV-1 clonal variants; clone 6101-15: E92Q): 4.41 fold-change
Susceptibility (Fold-change vs. WT) (HIV-1 clonal variants; clone 6322-1: N155H, G163R): 15 fold-change
Susceptibility (Fold-change vs. WT) (HIV-1 clonal variants; clone 6322-11: N155H): 11 fold-change
Susceptibility (Fold-change vs. WT) (HIV-1 clonal variants; clone 6503-10: E92Q): 3.88 fold-change
Susceptibility (Fold-change vs. WT) (HIV-1 clonal variants; clone 6545-7: N155H): 15 fold-change
Susceptibility (Fold-change vs. WT) (HIV-1 clonal variants; clone 6648-7: E92Q): 4.20 fold-change
Susceptibility (Fold-change vs. WT) (HIV-1 clonal variants; clone 6648-10: E92Q): 4.20 fold-change
Susceptibility (Fold-change vs. WT) (HIV-1 clonal variants; clone 6648-11: E92Q): 3.97 fold-change
Susceptibility (Fold-change vs. WT) (HIV-1 clonal variants; clone 6667-1: E92Q): 5.09 fold-change
Susceptibility (Fold-change vs. WT) (HIV-1 clonal variants; clone 7299-11: Q148R, G140C): 24 fold-change
Susceptibility (Fold-change vs. WT) (HIV-1 clonal variants; clone 7332-10: None): 0.79 fold-change
Susceptibility (Fold-change vs. WT) (HIV-1 clonal variants; clone 7425-11: E92Q): 1.95 fold-change
Susceptibility (Fold-change vs. WT) (HIV-1 clonal variants; clone 7476-5: T66I, E157Q): 1.63 fold-change
Susceptibility (Fold-change vs. WT) (HIV-1 clonal variants; clone 7476-9: T66I, T97A, E157Q): 2.45 fold-change
Susceptibility (Fold-change vs. WT) (HIV-1 clonal variants; clone 7562-12: N155H): 13 fold-change
% of Isolates (Fold-Change vs. WT) (2.5 to <5) ([1]; 47 patient-derived isolates): 4%
% of Isolates (Fold-Change vs. WT) (5 to <10) ([1]; 47 patient-derived isolates): 4%
% of Isolates (Fold-Change vs. WT) (≤2.5) ([1]; 47 patient-derived isolates): 2%
% of Isolates (Fold-Change vs. WT) (≥10) ([1]; 47 patient-derived isolates): 89%
Fold-Change vs. WT Mean ([1]; 47 patient-derived isolates): > 100 fold change
Fold-Change vs. WT Median ([1]; 47 patient-derived isolates): > 143 fold change
Susceptibility (Fold-change vs. WT) ([1]; isolate entry 1: L74M,T97A): 8.48 fold-change
Susceptibility (Fold-change vs. WT) ([1]; isolate entry 2: L68V,Y143C): 4.06 fold-change
Susceptibility (Fold-change vs. WT) ([1]; isolate entry 3: L68L/V,L74M,Y143R): > 143 fold-change
Susceptibility (Fold-change vs. WT) ([1]; isolate entry 4: T97A): 1.78 fold-change
Susceptibility (Fold-change vs. WT) ([1]; isolate entry 5: T97A,F121Y): 112 fold-change
Susceptibility (Fold-change vs. WT) ([1]; isolate entry 6: T97A,Y143R): > 143 fold-change
Susceptibility (Fold-change vs. WT) ([1]; isolate entry 7: F121Y): 12 fold-change
Susceptibility (Fold-change vs. WT) ([1]; isolate entry 8: L74M,N155H): 89 fold-change
Susceptibility (Fold-change vs. WT) ([1]; isolate entry 9: T97A,N155H): 53 fold-change
Susceptibility (Fold-change vs. WT) ([1]; isolate entry 10: T97A,Y143C): > 143 fold-change
Susceptibility (Fold-change vs. WT) ([1]; isolate entry 11: E92Q,E157E/Q): 4.8 fold-change
Susceptibility (Fold-change vs. WT) ([1]; isolate entry 12: E92Q): 18 fold-change
Susceptibility (Fold-change vs. WT) ([1]; isolate entry 13: N155H,E157E/Q): 19 fold-change
Susceptibility (Fold-change vs. WT) ([1]; isolate entry 14: E92Q): 6.7 fold-change
Susceptibility (Fold-change vs. WT) ([1]; isolate entry 15: Y143R): 22 fold-change
Susceptibility (Fold-change vs. WT) ([1]; isolate entry 16: Y143R): 16 fold-change
Susceptibility (Fold-change vs. WT) ([1]; isolate entry 17: N155H): 107 fold-change
Susceptibility (Fold-change vs. WT) ([1]; isolate entry 18: Y143C): 14 fold-change
Susceptibility (Fold-change vs. WT) ([1]; isolate entry 19: T97A,Y143C): > 143 fold-change
Susceptibility (Fold-change vs. WT) ([1]; isolate entry 20: Q148R,E138A): 43 fold-change
Susceptibility (Fold-change vs. WT) ([1]; isolate entry 21: N155H,G163R): 15 fold-change
Susceptibility (Fold-change vs. WT) ([1]; isolate entry 22: E92Q,N155H): > 143 fold-change
Susceptibility (Fold-change vs. WT) ([1]; isolate entry 23: E138K,Q148R): 54 fold-change
Susceptibility (Fold-change vs. WT) ([1]; isolate entry 24: G140S,Q148H): > 143 fold-change
Susceptibility (Fold-change vs. WT) ([1]; isolate entry 25: E92Q,N155H,G163R): > 143 fold-change
Susceptibility (Fold-change vs. WT) ([1]; isolate entry 26: G140A,Q148R): 88 fold-change
Susceptibility (Fold-change vs. WT) ([1]; isolate entry 27: G140S,Q148H): > 143 fold-change
Susceptibility (Fold-change vs. WT) ([1]; isolate entry 28: G140S,Q148H): > 143 fold-change
Susceptibility (Fold-change vs. WT) ([1]; isolate entry 29: G140S, Q148H): > 143 fold-change
Susceptibility (Fold-change vs. WT) ([1]; isolate entry 30: E138K,G140S,Q148H): > 143 fold-change
Susceptibility (Fold-change vs. WT) ([1]; isolate entry 31: G140S,Q148H): > 143 fold-change
Susceptibility (Fold-change vs. WT) ([1]; isolate entry 32: G140S,Q148H, G163K): > 143 fold-change
Susceptibility (Fold-change vs. WT) ([1]; isolate entry 33: G140S,Q148H): > 143 fold-change
Susceptibility (Fold-change vs. WT) ([1]; isolate entry 34: E138K,G140S,Q148H): > 143 fold-change
Susceptibility (Fold-change vs. WT) ([1]; isolate entry 35: E138K G140S Q148H): > 114 fold-change
Susceptibility (Fold-change vs. WT) ([1]; isolate entry 36: G140S,Q148H): > 143 fold-change
Susceptibility (Fold-change vs. WT) ([1]; isolate entry 37: G140S,Q148R): > 143 fold-change
Susceptibility (Fold-change vs. WT) ([1]; isolate entry 38: G140S,Q148H): > 143 fold-change
Susceptibility (Fold-change vs. WT) ([1]; isolate entry 39: G140S,Q148H): > 143 fold-change
Susceptibility (Fold-change vs. WT) ([1]; isolate entry 40: T97A,G140S,Q148H): > 143 fold-change
Susceptibility (Fold-change vs. WT) ([1]; isolate entry 41: E138K,G140C,Q148R): > 143 fold-change
Susceptibility (Fold-change vs. WT) ([1]; isolate entry 42: L74L/M,G140A,Q148R): > 143 fold-change
Susceptibility (Fold-change vs. WT) ([1]; isolate entry 43: G140S,Q148R): > 143 fold-change
Susceptibility (Fold-change vs. WT) ([1]; isolate entry 44: G140S,Q148H,E138A): > 143 fold-change
Susceptibility (Fold-change vs. WT) ([1]; isolate entry 45: T97A,G140S,Q148H): > 143 fold-change
Susceptibility (Fold-change vs. WT) ([1]; isolate entry 46: L74M,G140C,Q148R): > 143 fold-change
Susceptibility (Fold-change vs. WT) ([1]; isolate entry 47: E138K,G140A,Q148K): > 143 fold-change
